Test [1] addresses T1, acid phosphatase sample derived from Morganella morganii (Morganella morganii, UniProt P28581).
T1 construct: made in house; host or cells: Morganella morganii NCIMB 10466 (native strain, not recombinant; purified from cell-free extract)
Put plainly: Production of 5′-inosinic acid from various phosphate group donors by acid phosphatase sample. Conditions: inosine 2 g/dl, phosphate group donor 10 g/dl, enzyme 50 units/dl, pH 4.0, 30° C., 3 hours. It is filed as biochemical. The method, then:
Inosine (2 g/dl) and sodium tripolyphosphate, sodium polyphosphate (trade name: Polygon P, produced by Chiyoda Chemical), disodium phenylphosphate, or disodium carbamyl phosphate (10 g/dl) as a phosphate group donor were dissolved in sodium acetate buffer (pH 4.0), to which the enzyme sample prepared in Example 1 was added so that its concentration was 50 units/dl. The reaction mixture was incubated at 30° C. for 3 hours while maintaining pH at 4.0.

The subject of test [2] is acid phosphatase sample derived from Escherichia blattae. The test is described as above. To be noted: inosine 2 g/dl, phosphate group donor 10 g/dl, enzyme 50 units/dl, pH 4.0, 35° C., 3 hours. Type of test: biochemical. The method, then:
Inosine (2 g/dl) and sodium tripolyphosphate, sodium polyphosphate (trade name: Polygon P, produced by Chiyoda Chemical), disodium phenylphosphate, or disodium carbamyl phosphate (10 g/dl) as a phosphate group donor were dissolved in sodium acetate buffer (pH 4.0), to which the enzyme sample prepared in Example 4 was added so that its concentration was 50 units/dl. The reaction mixture was incubated at 35° C. for 3 hours while maintaining pH at 4.0.

Test [3] deals with Escherichia coli JM109/pEPI330. Kind of test: Production of 5′-inosinic acid from various phosphate group donors using microbial cells of the mutant strain. It is filed as cell-based. Conditions: inosine 6 g/dl, phosphate group donor 12 g/dl, cells 200 mg/dl dry weight, pH 4.0, 35° C., 32 hours. The method, then: Escherichia coli JM109/pEPI330 into which the plasmid containing the mutant acid phosphatase gene had been introduced was inoculated to an L medium (50 ml) containing 100 μg/ml of ampicillin and 1 mM of IPTG, and it was cultivated at 37° C. for 16 hours.
Inosine (6 g/dl) and sodium tripolyphosphate, sodium polyphosphate (trade name: Polygon P, produced by Chiyoda Chemical), disodium phenylphosphate, or disodium carbamyl phosphate (12 g/dl) as a phosphate group donor were dissolved in 100 mM sodium acetate buffer (pH 4.0), to which the microbial cells described above were added to give a cell concentration of 200 mg/dl as converted into a dry weight of the cells. The reaction mixture was incubated at 35° C. for 32 hours while maintaining pH at 4.0. 5′-Inosinic acid was efficiently produced and accumulated by using any of the phosphate group donors. However, the accumulated amount of 5′-inosinic acid was the highest when polyphosphoric acid was used as the phosphate group donor.

The test system of test [4] is E. coli JM109/pEPI380. Put plainly: Production of 5′-inosinic acid from various phosphate donors using new mutant acid phosphatase gene-containing strain. Type of test: cell-based. To be noted: inosine 6 g/dl, phosphate donor 15 g/dl, cells 100 mg/dl dry weight, pH 4.0, 35° C., 12 hours. The method, then: E. coli JM109/pEPI380 having introduced therein the plasmid containing the new mutant acid phosphatase gene was inoculated into 50 ml of an L medium containing 100 μg/ml of ampicillin and 1 mM of IPTG, and incubated at 37 C. for 16 hours.
Inosine (6 g/dl) and 15 g/dl of a tripolyphosphate, a polyphosphate (“Polygon P”, a trade name for a product of Chiyoda Kagaku K.K.), […] or disodium carbamylphosphate were dissolved in a 100-mM acetate buffer (pH 4.0). To this was added the above-mentioned strain such that the concentration reached 100 mg/dl in terms of the dry cell weight. The reaction was conducted at 35° C. for 12 hours while maintaining the pH at 4.0. 5′-Inosinic acid was formed and accumulated at good efficiency with any of the phosphate donors. Especially when a polyphosphate was used as a phosphate donor, 5′-inosinic acid was accumulated in the largest amount.

Test [5] addresses T1, acid phosphatase sample derived from Morganella morganii. Put plainly: Phosphorylation reaction of various nucleosides by acid phosphatase sample. It is filed as biochemical. Conditions: sodium pyrophosphate 10 g/dl, nucleoside 2 g/dl, enzyme 50 units/dl, pH 4.0, 30° C., 3 hours. The method, then: Sodium pyrophosphate (10 g/dl) and inosine, guanosine, uridine, or cytidine (2 g/dl) as a phosphate group acceptor were dissolved in sodium acetate buffer (pH 4.0), to which the enzyme sample prepared in Example 1 was added so that its concentration was 50 units/dl. The reaction mixture was incubated at 30° C. for 3 hours while maintaining pH at 4.0.

Test [6] relates to acid phosphatase sample derived from Escherichia blattae. The test is described as above. It is filed as biochemical. To be noted: sodium pyrophosphate 15 g/dl, nucleoside 3 g/dl, enzyme 50 units/dl, pH 4.0, 35° C., 3 hours. As for the experimental part: Sodium pyrophosphate (15 g/dl) and inosine, guanosine, uridine, or cytidine (3 g/dl) were dissolved in sodium acetate buffer (pH 4.0), to which the enzyme sample prepared in Example 4 was added so that its concentration was 50 units/dl. The reaction mixture was incubated at 35° C. for 3 hours while maintaining pH at 4.0.

Test [7] relates to Escherichia coli JM109/pEPI330. Kind of test: Production of various nucleoside-5′-phosphate esters using microbial cells of the mutant strain. It is filed as cell-based. Conditions: sodium pyrophosphate 12 g/dl, nucleoside 6 g/dl, cells 200 mg/dl dry weight, pH 4.0, 35° C., 32 hours. As for the experimental part:
Escherichia coli JM109/pEPI330 into which the plasmid containing the gene encoding the acid phosphatase with lowered phosphomonoesterase activity had been introduced was inoculated to an L medium (50 ml) containing 100 μg/ml of ampicillin and 1 mM of IPTG, and it was cultivated at 37° C. for 16 hours.
Sodium pyrophosphate (12 g/dl), and inosine, guanosine, uridine, or cytidine (6 g/dl) as a phosphate group acceptor were dissolved in 100 mM sodium acetate buffer (pH 4.0), to which the microbial cells described above were added to give a cell concentration of 200 mg/dl as converted into a dry weight of the cells. The reaction mixture was incubated at 35° C. for 32 hours while maintaining pH at 4.0. Produced nucleotide contained only nucleoside-5′-phosphate ester. By-production of nucleoside-2′-phosphate ester and nucleoside-3′-phosphate ester was not observed at all.

In test [8] the test system is E. coli JM109/pEPI380. Put plainly: Production of various nucleoside-5′-phosphate esters using new mutant acid phosphatase gene-containing strain. To be noted: pyrophosphoric acid 15 g/dl, nucleoside 8 g/dl, cells 100 mg/dl dry weight, pH 4.0, 35° C., 12 hours. Type of test: cell-based. As for the experimental part: E. coli JM109/pEPI380 having introduced therein the plasmid containing the new mutant acid phosphatase gene was inoculated into 50 ml of an L medium containing 100 μg/ml of ampicillin and 1 mM of IPTG, and incubated at 37° C. for 16 hours.
Pyrophosphoric acid (15 g/dl) and 8 g/dl of inosine, […], uridine or cytidine as a phosphate acceptor were dissolved in a 100 mM acetate buffer ([…]). To this was added the above-mentioned strain such that the concentration reached 100 mg/dl in terms of the dry cell weight. The reaction was conducted at 35° C. for 12 hours while maintaining the pH at 4.0. The phosphorylation proceeded well with any of the nucleosides to form and accumulate the corresponding nucleoside-5′-phosphate esters. The nucleotide formed was only the nucleoside-5′-phosphate ester, and the formation of a nucleoside-2′-phosphate ester and a nucleoside-3′-phosphate ester as by-products was not observed at all.

Test [9] has as its target T2, acid phosphatase derived from Morganella morganii (Morganella morganii, UniProt P28581).
T2 construct: made in house; host or cells: Morganella morganii NCIMB 10466 (native strain, not recombinant; purified from cell-free extract)
Type of test: biochemical, Morganella morganii NCIMB 10466.

Test [10] has as its system acid phosphatase derived from Escherichia blattae. It is filed as biochemical, Escherichia blattae JCM 1650.

The values below come from patent US6355472B2, “Method for producing nucleoside-5′-phosphate ester” (Ajinomoto Co., Inc., priority 1996, dated 2002).

T1 sequence (P28581 21-249): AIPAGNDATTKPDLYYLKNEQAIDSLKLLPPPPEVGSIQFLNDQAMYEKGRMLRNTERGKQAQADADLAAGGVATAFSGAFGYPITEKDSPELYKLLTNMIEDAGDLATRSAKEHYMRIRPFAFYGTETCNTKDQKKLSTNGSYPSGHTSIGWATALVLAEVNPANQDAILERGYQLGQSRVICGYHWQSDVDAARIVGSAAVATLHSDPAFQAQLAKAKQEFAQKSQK
T2 sequence (P28581 21-249): as above

On to `O=P([O-])([O-])Oc1ccccc1.[Na+].[Na+]` [Disodium phenylphosphate, disodium phenylphosphate], for which the “Produced 5′-inosinic acid” value was found to be 2.33 g/dL in test [1], 1.50 g/dL in test [2] and 7.60 g/dL in test [3]. Also, in the test on E. coli JM109/pEPI380 [4], the “Amount of 5′-inosinic acid formed” value came to 12.84 g/dL.
With `Nc1ccn([C@@H]2O[C@H](CO)[C@@H](O)[C@H]2O)c(=O)n1` [Cytidine, cytidine], the “Amount Produced (nucleoside-5′-ester)” value in [5] worked out at 0.98 g/dL; in test [6], 1.22 g/dL. Further, the “Amount Produced (nucleoside-5′-phosphate ester)” value in test [7] is 6.60 g/dL. Besides, in the test on E. coli JM109/pEPI380 [8], the “Amount of the Product (nucleoside-5′-phosphate ester)” value (“Amount of the Product” for short) worked out at 10.65 g/dL.
For `[Cu+2]` [Cu^2+], the “Effect of the addition of metal ion and inhibitor on activity” value in test [9] and in test [10] was “inhibited” in each case.
Take `[Fe+2]` [Fe^2+]: in test [10], the “Effect of the addition of metal ion and inhibitor on activity” value was “inhibited”.
As for `[Pb+2]` [Pb^2+], the “Effect of the addition of metal ion and inhibitor on activity” value in test [9] and in test [10] was “inhibited” each time.
Take `CC(=O)OP(=O)([O-])[O-].[K+].[Li+]` [potassium lithium acetylphosphate]: the “Amount of 5′-inosinic acid formed” value in the test on E. coli JM109/pEPI380 [4] was 10.65 g/dL.
On to `Nc1nc2c(ncn2[C@@H]2O[C@H](CO)[C@@H](O)[C@H]2O)c(=O)[nH]1` [Guanosine, guanosine], for which the “Amount Produced (nucleoside-5′-ester)” value in [5] is 1.90 g/dL; in [6] it was 1.05 g/dL. The “Amount Produced (nucleoside-5′-phosphate ester)” value in test [7] was 4.77 g/dL. Besides, the “Amount of the Product” value in the test on E. coli JM109/pEPI380 [8] came out at 5.78 g/dL.
The matching figures for `O=c1ccn([C@@H]2O[C@H](CO)[C@@H](O)[C@H]2O)c(=O)[nH]1` [Uridine, uridine]: 1.30 g/dL, 1.87 g/dL, 8.93 g/dL and 13.28 g/dL.
Take `O=P(O)(O)OP(=O)(O)OP(=O)(O)O` [Sodium tripolyphosphate, sodium tripolyphosphate]: the entries for the “Produced 5′-inosinic acid” value in [1], in [2] and in test [3] were 2.10 g/dL, 1.20 g/dL and 5.96 g/dL, respectively. Also, the “Amount of 5′-inosinic acid formed” value in the test with E. coli JM109/pEPI380 [4] was 10.84 g/dL.
As for `NC(=O)OP(=O)([O-])[O-].[Na+].[Na+]` [Disodium carbamyl phosphate, disodium carbamyl phosphate], the “Produced 5′-inosinic acid” value in [1] amounted to 2.54 g/dL; in test [2], 1.53 g/dL; in [3] it was 7.73 g/dL. Moreover, the “Amount of 5′-inosinic acid formed” value with E. coli JM109/pEPI380 [4] came to 12.42 g/dL.
As for `O=C(O)CI` [iodoacetic acid], the “Effect of the addition of metal ion and inhibitor on activity” value in test [9] and in [10] was “inhibited” throughout.
As to `OC[C@H]1O[C@@H](n2cnc3c(O)ncnc32)[C@H](O)[C@@H]1O` [Inosine, inosine], the “Amount Produced (nucleoside-5′-ester)” value came out at 2.60 g/dL in test [5] and 1.56 g/dL in test [6]. For the same molecule, in test [7], the “Amount Produced (nucleoside-5′-phosphate ester)” value was 7.45 g/dL. Besides, the “Amount of the Product” value with E. coli JM109/pEPI380 [8] turned out to be 12.05 g/dL.
For `[Hg+2]` [Hg^2+], the “Effect of the addition of metal ion and inhibitor on activity” value in test [9] and in test [10] was “inhibited” each time.
With `[Ag+2]` [Ag^2+], the “Effect of the addition of metal ion and inhibitor on activity” value in test [9] and in [10] was “inhibited” in each case.
Take sodium polyphosphate: the “Produced 5′-inosinic acid” value in [1] is 2.72 g/dL; in test [2], 1.79 g/dL; in test [3], 8.84 g/dL. Besides, in the test with E. coli JM109/pEPI380 [4], the “Amount of 5′-inosinic acid formed” value came out at 13.35 g/dL.
